Source: US9072742B2, “Method of predicting a predisposition to QT prolongation” (Vanda Pharmaceuticals, Inc., priority 2009, dated 2015)
Where “and” joins values, the source holds several entries; their conditions need not be identical. Equal entries are not always repeated.

System: individuals genotyped at the rs1083338 locus (BAI3 gene)
Experiment: QT prolongation (change in QTc, Fridericia) after oral iloperidone for two weeks, by rs1083338 genotype
Type: in vivo, human
Settings: for Odds Ratio: GG vs non-GG at rs1083338, iloperidone 24 mg/day; for High QT +test (number of individuals) / Low QT +test (number of individuals) / High QT −test (number of individuals) / Low QT −test (number of individuals): iloperidone 24 mg/day B.I.D. oral; for High QT +test (number of individuals) / Low QT +test (number of individuals): GG genotype at rs1083338; for High QT −test (number of individuals) / Low QT −test (number of individuals): genotype other than GG at rs1083338
Protocol: Since the QT interval changes with changes in heart rate, the QT interval is often measured as a corrected QT (QTc) interval. Any number of formulas may be employed to calculate the QTc, including, for example, the Fridericia formula (QTcF), the Bazett formula (QTcB), and the Rautaharju formula (QTp), among others. In the studies described herein, QT was calculated using the Fridericia formula. However, the present invention includes the use of any such formula or method for calculating a QTc or an uncorrected QT. Using the genotypes at the SNP loci above, it is possible, with a high degree of certainty, to predict an individual's predisposition to QT prolongation.

## COc1cc(C(C)=O)ccc1OCCCN1CCC(c2noc3cc(F)ccc23)CC1 [iloperidone, 1-[4-[3-[4-(6-fluoro-1,2-benzisoxazol-3-yl)-1-piperidinyl]propoxy]-3-methoxyphenl]ethanone]
Change threshold QT > 5 msec
  Odds Ratio: 4.21
  High QT +test (number of individuals): 39
  Low QT +test (number of individuals): seven and 7
  High QT −test (number of individuals): 78
  Low QT −test (number of individuals): 59
Change threshold QT > 15 msec
  Odds Ratio: 3.61
  High QT +test (number of individuals): 29
  Low QT +test (number of individuals): 17
  High QT −test (number of individuals): 44
  Low QT −test (number of individuals): 93
Change threshold QT > 30 msec
  Odds Ratio: 3.84
  High QT +test (number of individuals): 14
  Low QT +test (number of individuals): 32
  High QT −test (number of individuals): 14
  Low QT −test (number of individuals): 123
